Experimental findings from patent US10668032B2 (SyneuRx International (Taiwan) Corp., priority 2016, dated 2020) are described below.

Data set [1] relates to primary cortical neuronal culture. Description: Detection of cellular reactive oxygen species (CellROX) after 3-NP in primary cortical culture. Format: cell-based, rat. As for the experimental part: Reactive oxygen species (ROS) are detected on primary cortical neuronal culture by CellROX Oxidative Reagents (catalog number 10444, Life Technologies Corp. USA). […] The cells were then exposed to 2.5 mM 3-NP for 24 hours. Subsequently, […] CellROX Reagent was added, and then incubated for […]. CellROX Green Reagent is a DNA dye, and upon oxidation, it binds to DNA; thus, its signal is localized in the nucleus and mitochondria. ROS were quantified by fluorescence intensity. The samples were observed under a laser scanning confocal microscope Zeiss LSM700 (Zeiss, Germany) equipped with filter sets to detect fluorescent signal.

The test system of data set [2] is B6SJL-Tg(SOD1*G93A)1Gur/J mice. The data set is described as follows: SOD1*G93A transgenic ALS mice: behavioral tasks, body weight, survival. Format: in vivo, mouse. An excerpt:
Disease onset of B6SJL-Tg(SOD1*G93A)1Gur/J mice occurred at around 80-90 days of age, while progressive clinical weakness followed by paralysis and death occurred by 135-140 days.
In cohort 2, the male transgenic and wild-type littermates were randomly divided into 3 groups as cohort 1: vehicle (n=5), vehicle-ALS (n=6), and drug-ALS (n=11). Disease onset occurred at around 110-120 days of age, while progressive clinical weakness followed by paralysis and death occurred at around 150-155 days.
In cohort 1, drug regimen was initiated 8 weeks after birth and continued until the end of study. […] The vehicle groups received injections of the same volume of saline.
The drug regimen for cohort 2 was the same as that for cohort 1 except the dosing was started at 10 weeks of age.
Open field is an animal behavioral task that can monitor the overall spontaneous locomotor activity. Each animal was placed in an empty test arena (60 cm×60 cm plastic boxes) for 1 hour, and its activity was assessed by VersaMax Animal Activity Monitoring System (AccuScan Instruments, Inc. Columbus Ohio, USA). Total traveling distance, number of rearing movements and rearing time were analyzed. Performance of open field was measured 1-2 times per week.
In the open field task, each animal was placed in an empty test arena (43.2 cm×21.6 cm plastic boxes) for 1 hour, and its activity was assessed by Photobeam Activity System (San Diego Instruments, USA). Total traveling and rearing activities (beam break times) were analyzed. Performance of open field was measured once per week.
Rorarod task, which requires animals to balance and walk on a rotating cylinder, is a widely used test to measure coordinated motor skills. The mice were placed on a 5-channel automatic revolving rod apparatus (PanLab/Harvard Apparatus). […] After the training sessions, motor coordination was evaluated at 16 rpm for a maximum of 5 min. […] Performance of rotarod task was measured once per week, and the longest retention time for each animal was recorded.
A metal wire mesh (0.2 cm diameter, 1 cm×1 cm wide grid) was fixed horizontally 30 cm above the table. […] The latency to fall was recorded when the animal fell, and a maximum time of 180 s was assigned for analysis. There were two sessions for each individual with a 30-min interval, and the longer time was recorded. Performance of hanging test was measured once per week.
For each animal, body weight was measured weekly starting at 10 weeks of age. […]
Date and cause of death were recorded for each mouse. Animals were closely monitored and euthanized if moribund, which was defined as the inability of mice to right themselves 30 seconds after being placed on a side, in accordance with the criteria for severe morbidity. The moribund mice were recorded as “dead”, and euthanized using carbon dioxide.

Data set [3] relates to MPTP-induced C57BL/6J mice. The data set is described as follows: Pole test in MPTP-induced mice. It counts as in vivo, mouse. The note with it: 256 mg/kg body weight/day after 5 weeks of MPTP 30 mg/kg/day i.p. As for the experimental part:
Animals were housed and kept in the same condition as previous described. Male C57BL/6J mice (age: 12 weeks) were randomly assigned to 2 groups—vehicle control and MPTP-induced groups. The mice of MPTP-induced group were intraperitoneally injected with MPTP (30 mg/kg body weight/day) for five weeks, while those in the vehicle control group received injections of the same volume of saline. After 5 weeks of MPTP exposure, pole test was performed to elucidate the effect of MPTP-induced disability.
Pole test was used to measure the degree of bradykinesia, a typical symptom of parkinsonism. The animals were positioned head upward near the top of a rough-surfaced pole (1 cm in diameter and 60 cm in height). The time taken until they turned downward (Tturn) and the total time taken to climb down to the floor (TLA), were recorded. When the mouse was not able to turn downward, Tturn was taken as 60 seconds (default value).

The nature of data set [4]: Plasma pharmacokinetics of benzoic acid after oral gavage. It counts as in vivo, Sprague-Dawley rats. Conditions: rat, single oral gavage. The method, then:
The plasma concentration of benzoic acid was determined by LC/MS/MS. The chromatographic separation was carried out on a ODS 5 um column (4.6×150 mm, Biosil). The mobile phase consisted of a mixture of 1% mobile phase A and 99% mobile phase B. […] The injection volume was 50 μL and the column temperature was 23° C. All solvents were HPLC grade quality. Plots of plasma concentration of benzoic acid versus time are constructed. The fundamental pharmacokinetic parameters were obtained from non-compartmental analysis (NCA) of the plasma data using WinNonlin.

The next data set relates to primary cortical neurons. The data set is described as follows: Aβ25-35 cytotoxicity in primary cortical culture, cell survival (MTT).
Where [5] appears, read: 256 mg/kg/day i.p., vs ALS mice treated with vehicle.
Where [6] appears, read: NaBen 287.9 mg/kg + Li2CO3 74.2 mg/kg or LiBen 255.3 mg/kg.

Protocol for primary cortical neurons: MTT assay was used to assess the extents of cell survival. MTT (3-(4,5-dimethylthiazol-2-yl)-2,5-diphenyltetrazolium bromide) was added to the culture, incubated at 37° C. for 4 hours. Insoluble purple formazan products were yield by living cells. The colorimetric method was used to quantify the surviving cells, and “cell survival (%)” was defined as the mean numbers of surviving cells.
Primary cortical cultures were prepared as previous described. Aβ25-35 (Cat. No. A4559, Sigma) was dissolved in autoclaved ddH2O to make a stock solution of 2 mM, dispensed into aliquots, and immediately stored at −80° C. until use.

`O=C([O-])c1ccccc1.[Li+]` [lithium benzoate]: the “ROS reduction effect compared with sodium benzoate and lithium chloride” value in data set [1] (0.5 mM each) is “much more significant”. In addition, in data set [1] (0.5 mM, incubated 24 hours before 3-NP), the “ROS production induced by 3-NP” value was “back to the basal level”. Moreover, the “ROS production induced by 3-NP” value in data set [1] (lithium benzoate 0.5, 1 or 3 mM 24 h, then 2.5 mM 3-NP 24 h) is listed as “significantly reduced”. Also, in data set [2] (setting [5]), the “proportion of mice surviving over time” value is recorded as “improved” and the weight change entry is given as “improved”. The “hind limb functions (number of rearing movements, rearing time; open field)” value in data set [2] (cohort 1, female, 256 mg/kg/day i.p. from 8 weeks, about 90 to about 130 days of age, vs saline ALS mice) is listed as “significantly improved”. Moreover, the “motor functions (hanging test, rotarod test, rearing activity, traveling activity)” value in data set [2] (cohort 2, male, 256 mg/kg/day i.p. from 10 weeks, about 133 to about 147 days of age, vs saline ALS mice) is recorded as “improved”. Besides, in data set [3], the “total time for turning down (TLA), pole test” value is “significantly reduced” and the “turning time (Tturn), pole test” value is “significantly reduced”. Also, in data set [4] (setting [6]), the “AUC Extr of benzoic acid” value came out at 2.63%, the “AUCInf of benzoic acid” value was 62,874 hr * ng/mL, the “AUClast of benzoic acid” value was 62,059 hr * ng/mL and the “Cmax of benzoic acid” value is given as 109,321 ng/mL. The “MRT of benzoic acid” value in data set [4] (setting [6]) came to 45 min. In data set [4] (NaBen 287.9 mg/kg + Li2CO3 74.2 mg/kg or LiBen 255.3 mg/kg (same molarity)), the “Tmax of benzoic acid” value turned out to be 11.4 min. Moreover, the “cortical cell survival after Aβ25-35” value in the data set on primary cortical neurons (10 μM Aβ 25-35 for 2 days, then drug 1 mM for 4 days, vs no drug treatment) is recorded as “statistical improvement”. In the data set with primary cortical neurons (1 mM each, 4 days), the “reduction of cell death from Aβ25-35 toxicity compared with sodium benzoate and lithium chloride” value is on record as “much more than the other two drugs”.
